Where two headings read alike, the source gives them in different places.

We go through 19 compounds from patent US5728684A, “Determination of prodrugs metabolizable by the liver and therapeutic use thereof” (priority 1994, dated 1998).

In data set [1] the test system is metastatic prostate cancer. Particulars: cited from earlier work.
A short description of data set [2]: Michaelis constant / Vmax of 2-pyrimidinone deoxyribose analogs with the liver enzyme. It counts as biochemical, rat. As to conditions: rat, liver aldehyde oxidase. Here is the method: (§1) Rat hepatic tissue was washed with ice-cold 1.15% KCl and blotted dry. The tissue was then homogenized with a tissue homogenizer, in a volume of 1.15% KCl that was 3 times the tissue weight, to form a 25% (w/v) homogenate. The homogenate was then centrifuged at 10,000 g for 10 minutes at 4° C. The resulting supernatant was filtered through Miracloth (similar to cheese cloth) then dialyzed overnight against 50 mM Tris-HCl buffer pH 7.5 and stored at -80° C. before use. Rat hepatocytes were obtained by a perfusion technique then the cells were extracted with 10 mM phosphate buffer, pH 7.5, containing 1M KCl and dialyzed for 4 hours against 50 mM Tris-HCl buffer pH 7.5.
(§2) For the standard assay condition, the reaction mixture contained 50 mM Tris-HCl, pH 7.5, 1 mM EDTA, 180 μM of IPdR (or its analogs) and approximately 0.01 mg protein of 10,000 g supernatant of tissue homogenate in a final volume of 500 μl and the incubation was at 37° C. for 10 minutes unless specified otherwise. 300 μl of reaction mixture was removed at the end of incubation and mixed with 630 μl acetonitrile then agitated. The precipitated protein were removed by centrifugation and the supernatant was lyophilized to dryness. The samples were reconstituted to the original aliquot volume with the HPLC mobile phase buffer and analyzed on a Alltech RP-18 column. IPdR, IUdR and IU were detected at a UV absorption wavelength of 230 nm, and IPdR was also detected at a UV absorption wavelength of 335 nm. The mobile phase was 10% acetonitrile/90%mM ammonium acetate, pH 6.8 and the flow rate was 1 ml/minute. Standard curves of IPdR and IUdR were established from the integration value of known concentrations.
(§3) Several 2-pyrimidinone deoxyribose analogs were examined for the conversion to their deoxyuridine counterparts. […] Nevertheless the relative Vmax for IPdR in the reaction at pH 7.5 and pH 9.5 is the same. […] The synthetic substrates for aldehyde oxidase appear to be better than its natural substrates, N^1 -methylnicotinamide and acetaldehyde, as judged by the potency of inhibition of N^1 -methylnicotinamide and acetaldehyde to the IPdR oxidation reaction (Table IV). The rate of reactivity of the liver enzyme with different IPdR analogs follows the order EPdR, IP, IPdR, 5-bromo-2-pyrimidinone deoxyribose (BPdR) and 5-methyl-2-pyrimidinone deoxyribose (MPdR) or 5-ethyl-2-pyrimidinone deoxyribose (EtPdR) (Table V). Electronegative substituents in the 5-position seemed to increase the substrate activity in this oxidation reaction.

Data set [3] concerns aldehyde oxidase. In words: Substrate specificity of the conversion of RPdR to RUdR. The class given is in vitro ADME, rat. As to conditions: for Conversion of RPdR to RUdR / Products of the reaction: substrate 180 μM; for Conversion of RPdR to RUdR: 2 to 4 separate experiments, in nmol/mg/min. The procedure:
as §1, §2, §3
Substrate specificity of the conversion of […]

The next data set addresses IPdR oxidase. In words: Effect of inhibitors on the oxidation of IPdR to IUdR by liver homogenate. The class given is biochemical, rat. Particulars: for IC50: liver homogenate, read-out: IC50 (concentration at 50% inhibition of the conversion of IPdR to IUdR); for product inhibition: at 50 mM. The procedure: as §1, §2
Data set [4] has as its system aldehyde oxidase. As to conditions: cited from earlier work.
For data set [5] the following is noted: cited from earlier work; for catabolism to the free base: followed by dehalogenation; for cytotoxicity limiting effective use as radiosensitizer: in vivo.
A short description of data set [6]: Toxicity of FU and FP in BDF1 mice. It counts as in vivo. As to conditions: mouse, in vivo, po, daily, Day 1,2,3,4,5. The procedure: (§4) BDF1 mice were administered daily oral dosages of either 50, 75 or 100 mg/kg of FU or 100, 150 or 200 mg/kg of FP. The survival rates of each are presented in chart and graphic forms in Table VI and FIGS. 2 and 3.
For a further data set, the system named is BDF1 mice. In words: Toxicity of FU and FP in BDF1 mice. The class given is in vivo. As to conditions: Day 1,2,3,4,5. Here is the method: as §4
For another data set, the system named is P388-R leukemia cells. Nature of the data set: Survival time of mice bearing P388-R leukemia cells. The class given is in vivo, mouse. As to conditions: daily on Day 1,2,3,4,5. Here is the method:
Mice were injected with 100,000 P388-R leukemia cells to induce a leukemia. These cells were resistant to Adriamycin. Daily treatments of 25 and 50 mg/kg FU and 50 and 100 mg/kg FP were given orally to these leukemic mice and the duration of survival was measured. The results are given in tabular and graphic form in Table VII and FIG. 4.
Inoculum: 10^6 P388R cells into each mouse (i.p.)

For another data set, the system named is colon 38 cells. Nature of the data set: Colon 38 tumor weight in mice. Particulars: FU 25 and 50, FP 50 and 100 mg/kg daily oral. It counts as in vivo, mouse. The procedure:
Mice were injected with colon 38 cells and were either not treated or treated with daily treatments of 25 and 50 mg/kg FU and 50 and 100 mg/kg FP were given orally to the mice and the change in tumor weight was measured over time.

With `Cc1ccc(C(=O)Nc2ccc(S(=O)(=O)O)c3cc(S(=O)(=O)O)cc(S(=O)(=O)O)c23)cc1NC(=O)c1cccc(NC(=O)Nc2cccc(C(=O)Nc3cc(C(=O)Nc4ccc(S(=O)(=O)O)c5cc(S(=O)(=O)O)cc(S(=O)(=O)O)c45)ccc3C)c2)c1` [suramin], the “effectiveness of bolus dosages” value in data set [1] (bolus) is “significantly less effective”. The “effective anti-cancer dosage relative to dosage resulting in paralysis” value in data set [1] (human trials, metastatic prostate cancer) is listed as “very close to the dosage resulting in paralysis”.
Usually Km stands for the substrate concentration at which the rate is half of its maximum. Consider `C#Cc1cnc(=O)n([C@H]2C[C@H](O)[C@@H](CO)O2)c1` [EPdR, 5-ethynyl-2-pyrimidinone-deoxyribose], for which the Km in data set [2] (pH 7.5) worked out at 77 µM; in data set [2] (pH 9.5), 46 µM. The “Conversion of RPdR to RUdR” value with aldehyde oxidase [3] was 20 ± 4.
For `OCCS` [Mercaptoethanol, 2-mercaptoethanol], the IC50 on IPdR oxidase came out at 1800 µM. In addition, the “inhibition of aldehyde oxidase activity” value in the data set on aldehyde oxidase [4] (literature) was “could be inhibited”.
As to `O=c1ncc(Br)cn1[C@H]1C[C@H](O)[C@@H](CO)O1` [BPdR, 5-bromo-2-pyrimidinone-deoxyribose], the “Conversion of RPdR to RUdR” value in the data set on aldehyde oxidase [3] was 7 ± 2.
`O=c1ncc(I)c[nH]1` [IP, 5-iodo-2-pyrimidinone]: the “substrate quality for aldehyde oxidase” value with aldehyde oxidase [3] (in words) is “excellent substrate”. Further, the “Conversion of RPdR to RUdR” value with aldehyde oxidase [3] was determined as 18 ± 3.
For `O[C@H](CS)[C@H](O)CS` (racemic) [Dithiothreitol], the IC50 on IPdR oxidase came to 100 µM. Besides, the “inhibition of aldehyde oxidase activity” value in the data set with aldehyde oxidase [4] (literature) is “could be inhibited”.
For `CCCCS` [1-Butane thiol], in the data set with IPdR oxidase, the product inhibition result is given as “Approximately 25%” and the IC50 is above 50000 µM.
Consider `Cc1cnc(=O)n([C@H]2C[C@H](O)[C@@H](CO)O2)c1` [MPdR, 5-methyl-2-pyrimidinone-deoxyribose], for which, in the data set with aldehyde oxidase [3], the “Products of the reaction” value was “not detected” and the “Conversion of RPdR to RUdR” value is recorded as below 0.1.
`O=c1[nH]c(=O)n([C@H]2C[C@H](O)[C@@H](CO)O2)cc1Br` [BUdR, 5-bromo-deoxyuridine]: in data set [5], the “catabolism to the free base” value is “rapid catabolism” and the “cytotoxicity limiting effective use as radiosensitizer” value is on record as “limited by their cytotoxicity”.
Regarding `O=c1[nH]c(=O)n([C@H]2C[C@H](O)[C@@H](CO)O2)cc1I` [IUdR, iodo-deoxyuridine], in [5], the “catabolism to the free base” value is given as “rapid catabolism” and the “cytotoxicity limiting effective use as radiosensitizer” value is “limited by their cytotoxicity”. Further, the “systemic toxicity limiting clinical usage” value in data set [5] (systemic use) is listed as “limited its clinical usage”.
As to `NC(CO)(CO)CO` [Tris buffer], the “stimulation of aldehyde oxidase activity” value in the data set on aldehyde oxidase [4] (literature) was “stimulated by potassium ferricyanide and Tris buffer”.
Usually LD50 stands for the dose at which mortality reaches 50%. High values mean lower toxicity, low ones greater toxicity. Consider `O=c1[nH]cc(F)c(=O)[nH]1` [FU, 5-fluoro uracil, reference compound], for which the LD50 in data set [6] stood at 70 mg/kg. The figures for the Death/Total with BDF1 mice (50 mg/kg p.o.), with BDF1 mice (75 mg/kg p.o.) and with BDF1 mice (100 mg/kg p.o.) were 5/5, 2/5 and 1/5, respectively. Also, the Cures/Total in the data set on P388-R leukemia cells (25 mg/kg oral) and in the data set on P388-R leukemia cells (50 mg/kg oral) was 0/5 each time. Besides, the “ILS (increase in life span over controls)” value with P388-R leukemia cells (25 mg/kg oral) worked out at 5%; with P388-R leukemia cells (50 mg/kg oral), 25%. Moreover, in the data set on colon 38 cells, the “reduction in tumor size or reduction in its growth rate, FU versus FP” value was “comparable between FU and FP”.
On to `N[C@@H](CS)C(=O)O` [Cysteine], for which, in the data set with IPdR oxidase, the product inhibition result was “Approximately 40%”. In addition, the IC50 on IPdR oxidase was above 50000 µM. The “inhibition of aldehyde oxidase activity” value in the data set on aldehyde oxidase [4] (at 5 mM) was “no significant inhibition”; in the data set with aldehyde oxidase [4] (at 50 mM), “potent inhibition”.
Take `CC=O` [Acetaldehyde]: the IC50 at IPdR oxidase was 5000 µM. For the same compound, the “inhibition of aldehyde oxidase activity” value with aldehyde oxidase [4] (literature) was “inhibited by acetaldehyde”.
For `CCCC(C(=O)OCCN(CC)CC)(c1ccccc1)c1ccccc1` [SKF-525A], on IPdR oxidase, the IC50 was determined as 30 µM.
Turning to `OO` [Hydrogen peroxide], the IC50 at IPdR oxidase was found to be 10000 µM.
On to `NO` [Hydroxyl amine], for which the IC50 on IPdR oxidase amounted to 1000 µM.
As for `CCc1cnc(=O)n([C@H]2C[C@H](O)[C@@H](CO)O2)c1` [EtPdR, 5-ethyl-2-pyrimidinone-deoxyribose], in the data set with aldehyde oxidase [3], the “Products of the reaction” value is “not detected” and the “Conversion of RPdR to RUdR” value is below 0.1.
For the compound `C[n+]1cccc(C(N)=O)c1` [N^1 -methylnicotinamide], the IC50 at IPdR oxidase is 1000 µM. Besides, in the data set with aldehyde oxidase [4] (to N1-methyl-2-pyridone-5-carboxamide and N1-methyl-4-pyridone-3-carboxamide), the “conversion by hepatic aldehyde oxidase” value is “converts N^1 -methylnicotinamide”.
